According to ChEMBL document CHEMBL5506020 (J Med Chem, 2024):
Active and inactive are the calls of the source. The calls are words filed in the database; no cut-off is given here.

Legend:
MV4-11 [1] = assay: Antiproliferative activity against human MV4-11 cells incubated for 120 hrs by Cell-Titer Glo assay; details: MV4-11, 120 h
MOLM-13 [2] = assay: Antiproliferative activity against human MOLM-13 cells incubated for 72 hrs by Cell-Titer Glo assay; details: MOLM-13, 72 h
[3] = Antiproliferative activity against human MOLM16 cells incubated for 72 hrs by Cell-Titer Glo assay; details: MOLM16, 72 h
THP-1 = assay: Antiproliferative activity against human THP-1 cells
EOL1 = assay: Antiproliferative activity against human EOL1 cells
KG-1 = assay: Antiproliferative activity against human KG-1 cells
MV4-11 [4] = assay: Antitumor activity against human MV4-11 cells xenografted in NOD-SCID mouse assessed as tumor growth inhibition at 10 mg/kg, po QD for 2 weeks; assay type: functional; details: MV4-11, 336 h, read-out: TGI
MV4-11 [5] = assay: Downregulation of c-Myc protein level in human MV4-11 cells at 50 nM incubated for 24 hrs by Western blotting analysis; assay type: functional, cell-based
MOLM-16 = assay: Downregulation of c-Myc protein level in human MOLM16 cells at 50 nM incubated for 24 hrs by Western blotting analysis; assay type: functional, cell-based
MOLM-13 [6] = assay: Downregulation of c-Myc protein level in human MOLM-13 cells at 50 nM incubated for 24 hrs by Western blotting analysis; assay type: functional, cell-based
[7] = biological target: Protein cereblon/Histone acetyltransferase p300 (Homo sapiens) (UniProt Q09472+Q96SW2); assay: PROTAC activity at CRBN/p300 in human MV4-11 cells assessed as p300 degradation at 10 to 50 nM incubated for 24 hrs by Western blotting analysis; assay type: cell-based; details: dose 10-50 nM
Sequence of Protein cereblon/Histone acetyltransferase p300 (Homo sapiens) (Q09472 2-2414 limits assumed): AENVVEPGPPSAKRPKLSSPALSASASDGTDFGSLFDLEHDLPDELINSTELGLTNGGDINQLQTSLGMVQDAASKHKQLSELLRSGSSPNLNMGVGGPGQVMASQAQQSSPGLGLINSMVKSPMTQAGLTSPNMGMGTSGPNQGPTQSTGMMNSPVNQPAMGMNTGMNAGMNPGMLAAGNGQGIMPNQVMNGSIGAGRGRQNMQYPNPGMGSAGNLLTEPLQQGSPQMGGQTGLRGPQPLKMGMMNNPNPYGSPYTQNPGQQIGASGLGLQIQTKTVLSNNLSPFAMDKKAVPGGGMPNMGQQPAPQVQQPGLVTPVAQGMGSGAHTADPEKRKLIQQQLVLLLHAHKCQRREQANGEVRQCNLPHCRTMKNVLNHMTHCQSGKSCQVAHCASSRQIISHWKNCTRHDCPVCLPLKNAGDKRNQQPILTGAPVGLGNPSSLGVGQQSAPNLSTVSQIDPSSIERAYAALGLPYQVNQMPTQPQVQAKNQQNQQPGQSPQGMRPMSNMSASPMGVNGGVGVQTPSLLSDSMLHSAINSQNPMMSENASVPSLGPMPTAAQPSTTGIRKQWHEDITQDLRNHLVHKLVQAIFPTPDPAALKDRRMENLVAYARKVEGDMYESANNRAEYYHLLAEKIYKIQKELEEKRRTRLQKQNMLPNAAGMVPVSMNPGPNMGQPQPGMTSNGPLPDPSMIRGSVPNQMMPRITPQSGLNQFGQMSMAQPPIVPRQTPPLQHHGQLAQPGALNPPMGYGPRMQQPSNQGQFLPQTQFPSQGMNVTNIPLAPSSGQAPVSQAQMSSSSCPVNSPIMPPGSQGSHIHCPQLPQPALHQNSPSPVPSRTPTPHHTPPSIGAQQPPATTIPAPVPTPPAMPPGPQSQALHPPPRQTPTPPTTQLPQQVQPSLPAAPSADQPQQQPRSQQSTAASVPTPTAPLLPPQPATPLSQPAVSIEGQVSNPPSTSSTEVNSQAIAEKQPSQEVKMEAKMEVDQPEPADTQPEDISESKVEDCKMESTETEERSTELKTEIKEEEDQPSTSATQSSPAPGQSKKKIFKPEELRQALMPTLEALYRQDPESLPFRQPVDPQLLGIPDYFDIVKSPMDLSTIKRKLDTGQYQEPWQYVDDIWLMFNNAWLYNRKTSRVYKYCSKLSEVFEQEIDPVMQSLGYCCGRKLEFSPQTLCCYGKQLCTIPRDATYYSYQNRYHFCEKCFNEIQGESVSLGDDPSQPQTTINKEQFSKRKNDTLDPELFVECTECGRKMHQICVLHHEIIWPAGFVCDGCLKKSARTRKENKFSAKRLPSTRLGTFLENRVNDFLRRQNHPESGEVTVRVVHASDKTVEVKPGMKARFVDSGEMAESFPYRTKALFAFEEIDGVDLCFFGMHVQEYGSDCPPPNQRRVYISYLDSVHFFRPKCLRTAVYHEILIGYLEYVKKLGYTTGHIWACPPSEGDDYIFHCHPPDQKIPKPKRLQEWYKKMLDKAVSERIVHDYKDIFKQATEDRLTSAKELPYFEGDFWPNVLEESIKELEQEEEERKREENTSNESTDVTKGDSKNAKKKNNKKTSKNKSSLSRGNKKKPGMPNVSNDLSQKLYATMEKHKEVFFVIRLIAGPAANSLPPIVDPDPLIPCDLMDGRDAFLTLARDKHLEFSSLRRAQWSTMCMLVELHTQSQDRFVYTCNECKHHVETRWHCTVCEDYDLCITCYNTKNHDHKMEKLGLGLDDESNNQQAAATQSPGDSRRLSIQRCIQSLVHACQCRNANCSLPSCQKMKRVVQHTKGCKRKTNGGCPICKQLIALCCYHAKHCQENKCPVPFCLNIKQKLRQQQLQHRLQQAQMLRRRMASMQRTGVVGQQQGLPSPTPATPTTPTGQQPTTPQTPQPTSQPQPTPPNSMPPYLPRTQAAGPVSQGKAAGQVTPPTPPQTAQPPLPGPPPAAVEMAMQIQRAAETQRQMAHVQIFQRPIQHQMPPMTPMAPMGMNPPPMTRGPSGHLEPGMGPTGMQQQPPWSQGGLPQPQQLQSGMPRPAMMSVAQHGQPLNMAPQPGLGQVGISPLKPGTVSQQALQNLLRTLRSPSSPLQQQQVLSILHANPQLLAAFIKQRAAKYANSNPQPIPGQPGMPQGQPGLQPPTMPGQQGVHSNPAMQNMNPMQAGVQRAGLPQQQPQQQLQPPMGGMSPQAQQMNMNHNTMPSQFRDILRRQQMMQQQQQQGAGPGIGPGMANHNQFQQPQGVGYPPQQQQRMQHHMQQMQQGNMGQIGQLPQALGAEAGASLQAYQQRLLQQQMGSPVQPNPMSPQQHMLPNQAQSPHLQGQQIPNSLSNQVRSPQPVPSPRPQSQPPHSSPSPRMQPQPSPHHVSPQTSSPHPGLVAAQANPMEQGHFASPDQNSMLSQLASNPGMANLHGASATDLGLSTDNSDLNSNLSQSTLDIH
Sequence of Protein cereblon/Histone acetyltransferase p300 (Homo sapiens) (Q96SW2 whole entry partner): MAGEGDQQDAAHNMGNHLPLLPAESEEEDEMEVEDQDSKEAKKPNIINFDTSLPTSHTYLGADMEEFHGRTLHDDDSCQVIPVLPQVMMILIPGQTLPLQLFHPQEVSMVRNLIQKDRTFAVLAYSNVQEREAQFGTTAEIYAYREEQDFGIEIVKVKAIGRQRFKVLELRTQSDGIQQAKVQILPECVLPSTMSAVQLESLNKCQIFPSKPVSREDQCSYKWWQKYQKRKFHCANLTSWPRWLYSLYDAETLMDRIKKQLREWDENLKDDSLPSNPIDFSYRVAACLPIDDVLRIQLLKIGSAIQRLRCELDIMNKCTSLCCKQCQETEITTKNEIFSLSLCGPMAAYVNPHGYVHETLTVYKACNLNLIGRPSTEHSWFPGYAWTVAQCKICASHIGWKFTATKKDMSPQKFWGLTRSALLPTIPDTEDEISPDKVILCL

IC50 (MV4-11 [1]) [µM] | IC50 (MOLM-13 [2]) [µM] | IC50 (THP-1) [µM] | Activity [7] | SMILES | IC50 [3] [µM] | IC50 (EOL1) [µM] | IC50 (KG-1) [µM] | inhibition in vivo at 10 mg/kg (MV4-11 [4]) [%] | Activity (MV4-11 [5]) | Activity (MOLM-16) | Activity (MOLM-13 [6])
0.0867 | > 1 |  |  | Cc1noc(C)c1-c1ccc2c(c1)nc([C@@H]1CCCC(=O)N1c1ccc(F)c(F)c1)n2C1CCN(CC(=O)Nc2ccc(-c3ccc(CNc4cccc5c4C(=O)N(C4CCC(=O)N(C)C4=O)C5=O)cc3)nc2)CC1 (stereo partly specified) | 0.2 |  |  |  |  |  | 
0.0204 | 0.103 | < 3 |  | CO[C@H]1CC[C@H](n2c([C@@H]3CCCC(=O)N3c3ccc(F)c(F)c3)nc3cc(-c4c(C)noc4C)ccc32)CC1 [INOBRODIB] | 0.0129 | < 3 | < 3 | 65 |  |  | 
0.0057 | 0.137 |  |  | Cc1noc(C)c1-c1ccc2c(c1)nc([C@@H]1CCCC(=O)N1c1ccc(F)c(F)c1)n2C1CCN(CC(=O)Nc2ccc(-c3ccc(CNc4cccc5c4C(=O)N(C4CCC(=O)NC4=O)C5=O)cc3)cc2)CC1 (stereo partly specified) | 0.0144 |  |  |  | Active | Active | Active
0.0442 | > 1 |  |  | Cc1noc(C)c1-c1ccc2c(c1)nc([C@@H]1CCCC(=O)N1c1ccc(F)c(F)c1)n2C1CCN(CC(=O)Nc2cnc(-c3ccc(CNc4cccc5c4C(=O)N(C4CCC(=O)N(C)C4=O)C5=O)cc3)nc2)CC1 (stereo partly specified) | 0.0458 |  |  |  |  |  | 
0.218 |  |  | Active | Cc1noc(C)c1-c1ccc2c(c1)nc([C@@H]1CCCC(=O)N1c1ccc(F)c(F)c1)n2C1CCN(CC(=O)NCCCCCCCCNc2cccc3c2C(=O)N(C2CCC(=O)NC2=O)C3=O)CC1 (stereo partly specified) |  |  |  |  |  |  | 
